Like-named read-outs stand apart in the source and are kept apart here.

Consider 19 compounds from patent US11254686B1 (Corvus Pharmaceuticals, Inc., priority 2017, dated 2022).

The target in one experiment is adenosine A2B receptor (Homo sapiens (Human), UniProt P29275). The experiment is described as follows: Adenosine receptor activity assay (Table 1), A2B activity. The conditions noted are these: for IC50: read-out: Ave A2B cAMP IC50. The format is biochemical.
Another experiment has as its target adenosine A2A receptor (Homo sapiens (Human), UniProt P29274). The experiment is described as follows: Adenosine receptor activity assay (Table 1), A2A activity. The format is biochemical. The conditions noted are these: read-out: Ave A2A cAMP IC50.
In experiment [1] the target is T1, adenosine A1 receptor (Homo sapiens (Human), UniProt P30542). The experiment is described as follows: Adenosine receptor activity assay (Table 1), A1 cAMP. In kind it is cell-based.
T1 sequence (P30542 whole entry): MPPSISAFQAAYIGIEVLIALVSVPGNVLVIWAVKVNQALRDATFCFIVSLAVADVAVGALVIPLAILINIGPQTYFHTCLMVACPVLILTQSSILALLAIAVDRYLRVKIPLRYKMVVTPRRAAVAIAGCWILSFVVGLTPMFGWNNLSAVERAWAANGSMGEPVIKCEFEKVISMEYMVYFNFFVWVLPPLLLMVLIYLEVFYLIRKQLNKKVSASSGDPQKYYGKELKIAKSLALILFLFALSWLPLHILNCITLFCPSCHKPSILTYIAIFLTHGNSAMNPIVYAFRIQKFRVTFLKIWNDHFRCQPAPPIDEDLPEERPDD
Experiment [2] deals with T2, adenosine A3 receptor (Homo sapiens (Human), UniProt P0DMS8). Nature of the experiment: Adenosine receptor activity assay (Table 1), A3 cAMP. In kind it is cell-based.
T2 sequence (P0DMS8 whole entry): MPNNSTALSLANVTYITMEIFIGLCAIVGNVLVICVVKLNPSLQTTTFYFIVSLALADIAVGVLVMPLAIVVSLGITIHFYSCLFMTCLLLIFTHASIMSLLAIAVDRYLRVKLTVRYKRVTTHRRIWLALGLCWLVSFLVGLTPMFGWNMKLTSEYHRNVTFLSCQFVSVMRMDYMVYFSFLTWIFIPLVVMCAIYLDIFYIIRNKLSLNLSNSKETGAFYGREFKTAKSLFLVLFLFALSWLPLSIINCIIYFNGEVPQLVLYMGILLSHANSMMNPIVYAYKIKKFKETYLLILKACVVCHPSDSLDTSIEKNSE
The target in experiment [3] is T1, adenosine A1 receptor. The experiment is described as follows: Adenosine receptor activity assay (Table 1), A1 cAMP. In kind it is biochemical. The procedure:
(§1) Table 1. Compounds (e.g., Adenosine Receptor modulators) and activity assay results. The legend is as follows: A=<10 nM; B=10-50 nM; C=50-100 nM; D=100-500; and E=>500 nM. The ratio corresponds to the A2A activity to the A2B activity; or A2A/A2B.

For experiment [4], the target named is T2, adenosine A3 receptor. The experiment is described as follows: Adenosine receptor activity assay (Table 1), A3 cAMP. The format is biochemical. On the procedure: as §1
The mark [5] stands for this setting: A2A activity to A2B activity (A2A/A2B).
Setting [6] is: A2A activity to the A2B activity, A2A/A2B.

Sequence of adenosine A2A receptor (P29274 whole entry): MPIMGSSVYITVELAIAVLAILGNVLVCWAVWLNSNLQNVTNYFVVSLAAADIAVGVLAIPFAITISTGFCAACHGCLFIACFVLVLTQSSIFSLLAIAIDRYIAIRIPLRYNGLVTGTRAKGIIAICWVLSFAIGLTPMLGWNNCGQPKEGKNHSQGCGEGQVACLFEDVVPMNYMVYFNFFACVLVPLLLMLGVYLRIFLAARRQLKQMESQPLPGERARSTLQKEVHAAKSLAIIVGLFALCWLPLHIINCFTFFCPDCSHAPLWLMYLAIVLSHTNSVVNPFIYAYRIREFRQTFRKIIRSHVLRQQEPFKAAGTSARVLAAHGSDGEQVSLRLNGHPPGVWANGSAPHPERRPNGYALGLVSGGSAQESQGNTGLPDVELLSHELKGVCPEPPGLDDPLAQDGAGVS
Sequence of adenosine A2B receptor (P29275 whole entry): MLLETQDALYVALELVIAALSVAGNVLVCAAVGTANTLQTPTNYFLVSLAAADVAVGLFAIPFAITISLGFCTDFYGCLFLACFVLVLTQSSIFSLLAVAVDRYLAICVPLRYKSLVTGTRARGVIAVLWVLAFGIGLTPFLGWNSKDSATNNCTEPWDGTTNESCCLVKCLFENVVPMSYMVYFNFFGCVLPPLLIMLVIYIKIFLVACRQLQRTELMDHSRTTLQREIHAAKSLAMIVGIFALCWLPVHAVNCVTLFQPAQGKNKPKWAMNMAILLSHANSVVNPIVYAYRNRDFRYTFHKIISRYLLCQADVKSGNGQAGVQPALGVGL

The term IC50 denotes the concentration needed to halve the response being measured. On to `CNc1cc2nc(N[C@@H](C)c3ccccn3)nc(C(=O)NCCO)c2s1` [Example Z222, (S)—N-(2-Hydroxyethyl)-6-(methylamino)-2-((1-(pyridin-2-yl)ethyl)amino)thieno[3,2-d]pyrimidine-4-carboxamide], for which, at adenosine A2B receptor (setting [5]), the Ratio is 44.93. Moreover, the IC50 on adenosine A2B receptor was 10 to 50 nM; at adenosine A2A receptor, > 500 nM; at adenosine A1 receptor [1], > 500 nM; at adenosine A3 receptor [2], > 500 nM.
Turning to `C[C@H](O)CNC(=O)c1nc(N[C@@H](C)c2cncc(F)c2)nc2cc(C(F)(F)F)sc12` [Example Z392, 2-(((S)-1-(5-fluoropyridin-3-yl)ethyl)amino)-N—((S)-2-hydroxypropyl)-6-(trifluoromethyl)thieno[3,2-d]pyrimidine-4-carboxamide], the Ratio on adenosine A2B receptor (setting [5]) stood at 248.84. Besides, the IC50 on adenosine A2B receptor was < 10 nM; on adenosine A2A receptor it was > 500 nM; against adenosine A1 receptor [1] it was 50 to 100 nM; against adenosine A3 receptor [2], 50 to 100 nM.
As to `C[C@H](Nc1nc(C(=O)NC[C@@H](C)O)c2sc(C(F)(F)F)cc2n1)c1cccnc1` [Example Z348, N—((R)-2-Hydroxypropyl)-2-(((S)-1-(pyridin-3-yl)ethyl)amino)-6-(trifluoromethyl)thieno[3,2-d]pyrimidine-4-carboxamide], on adenosine A2B receptor (setting [5]), the Ratio was found to be 92.29. Also, the IC50 at adenosine A2B receptor was 10 to 50 nM; on adenosine A2A receptor, > 500 nM; on adenosine A1 receptor [1], > 500 nM; on adenosine A3 receptor [2], 50 to 100 nM.
Turning to `C[C@H](Nc1nc(C(=O)NC[C@@H](C)O)c2sccc2n1)c1cncc(Cl)c1` [Example Z293, 2-(((S)-1-(5-Chloropyridin-3-yl)ethyl)amino)-N—((R)-2-hydroxypropyl)thieno[3,2-d]pyrimidine-4-carboxamide], the Ratio at adenosine A2B receptor (setting [5]) turned out to be 41.78. Besides, the IC50 on adenosine A2B receptor is < 10 nM; at adenosine A2A receptor, 100 to 500 nM; against adenosine A1 receptor [1] it was 50 to 100 nM; on adenosine A3 receptor [2], 50 to 100 nM.
With `CNc1cc2nc(N[C@@H](C)c3ccccn3)nc(C(=O)N3CC(O)C3)c2s1` [Example Z221, (S)-(3-Hydroxyazetidin-1-yl)(6-(methylamino)-2-((1-(pyridin-2-yl)ethyl)amino)thieno[3,2-d]pyrimidin-4-yl)methanone], the Ratio at adenosine A2B receptor (setting [5]) was found to be 52.95. For the same compound, the IC50 on adenosine A2B receptor was 10 to 50 nM; on adenosine A2A receptor, > 500 nM; on adenosine A1 receptor [1] it was > 500 nM; on adenosine A3 receptor [2], 50 to 100 nM.
For `C[C@H](Nc1nc(C(=O)NC(C)(C)C)c2sccc2n1)c1ccccn1` [Example Z201, (S)—N-(tert-Butyl)-2-((1-(pyridin-2-yl)ethyl)amino)thieno[3,2-d]pyrimidine-4-carboxamide], on adenosine A2B receptor (setting [5]), the Ratio is 2.22. Further, the IC50 lay in the range of 10 to 50 nM on adenosine A2B receptor, 50 to 100 nM on adenosine A2A receptor, 50 to 100 nM at adenosine A1 receptor [1] and 50 to 100 nM on adenosine A3 receptor [2].
Turning to `Cc1cc2nc(N[C@@H](C)c3cccnc3)nc(C(=O)N3CC(O)C3)c2s1` [Example Z299, (S)-(3-Hydroxyazetidin-1-yl)(6-methyl-2-((1-(pyridin-3-yl)ethyl)amino)thieno[3,2-d]pyrimidin-4-yl)methanone], on adenosine A2B receptor (setting [5]), the Ratio was 39.68. The IC50 at adenosine A2B receptor was < 10 nM; on adenosine A2A receptor it was 100 to 500 nM; against adenosine A1 receptor [1] it was > 500 nM; against adenosine A3 receptor [2], > 500 nM.
As to `CNc1cc2nc(N[C@@H](C)c3cncc(F)c3)nc(C(=O)N3CC(OC)C3)c2s1` [Example Z243, (S)-(2-((1-(5-Fluoropyridin-3-yl)ethyl)amino)-6-(methylamino)thieno[3,2-d]pyrimidin-4-yl)(3-methoxyazetidin-1-yl)methanone], the Ratio at adenosine A2B receptor (setting [5]) came out at 112.45. The IC50 at adenosine A2B receptor is < 10 nM; at adenosine A2A receptor, 100 to 500 nM; against adenosine A1 receptor [1], > 500 nM; against adenosine A3 receptor [2] it was 50 to 100 nM.
For `Cc1csc2c(C(=O)N3CC(NC(=O)C(C)(C)C)C3)nc(N[C@@H](C)c3ccccn3)nc12` [Example Z559, (S)—N-(1-(7-Methyl-2-((1-(pyridin-2-yl)ethyl)amino)thieno[3,2-d]pyrimidine-4-carbonyl)azetidin-3-yl)pivalamide], at adenosine A2B receptor (setting [6]), the Ratio is 1.93. The IC50 at adenosine A2B receptor is 10 to 50 nM; on adenosine A2A receptor, 10 to 50 nM; at adenosine A1 receptor [3], > 500 nM; at adenosine A3 receptor [4], 100 to 500 nM.
With `C[C@H](Nc1nc(C(=O)N2CC(CN(C)C(=O)C(C)(C)C)C2)c2sccc2n1)c1cncc(F)c1` [Example Z551, (S)—N-((1-(2-((1-(5-Fluoropyridin-3-yl)ethyl)amino)thieno[3,2-d]pyrimidine-4-carbonyl)azetidin-3-yl)methyl)-N-methylpivalamide], the Ratio on adenosine A2B receptor (setting [6]) was 1.68. The IC50 was 10 to 50 nM on adenosine A2B receptor, 10 to 50 nM on adenosine A2A receptor, > 500 nM on adenosine A1 receptor [3] and > 500 nM against adenosine A3 receptor [4].
Turning to `Cc1cc2nc(N[C@@H](C)c3cncc(F)c3)nc(C(=O)N3CC(CC(=O)OC(C)(C)C)C3)c2s1` [Example Z580, tert-Butyl (S)-2-(1-(2-((1-(5-Fluoropyridin-3-yl)ethyl)amino)-6-methylthieno[3,2-d]pyrimidine-4-carbonyl)azetidin-3-yl)acetate], the Ratio at adenosine A2B receptor (setting [6]) worked out at 1.19. Also, the IC50 on adenosine A2B receptor is 10 to 50 nM; at adenosine A2A receptor, 10 to 50 nM; at adenosine A1 receptor [3], > 500 nM; against adenosine A3 receptor [4], 100 to 500 nM.
For the compound `CC(=O)Nc1ccc(CCNC(=O)c2nc(N[C@@H](C)c3cncc(F)c3)nc3cc(C)sc23)cc1` [Example Z488, (S)—N-(4-Acetamidophenethyl)-2-((1-(5-fluoropyridin-3-yl)ethyl)amino)-6-methylthieno[3,2-d]pyrimidine-4-carboxamide], at adenosine A2B receptor (setting [6]), the Ratio worked out at 147.08. For the same compound, the IC50 is < 10 nM at adenosine A2B receptor, > 500 nM at adenosine A2A receptor, > 500 nM against adenosine A1 receptor [3] and > 500 nM against adenosine A3 receptor [4].
Consider `COc1ccc([C@H](C)Nc2nc(C(=O)NCc3cccnc3)c3sccc3n2)cc1` [Example Z435, (S)-2-((1-(4-Methoxyphenyl)ethyl)amino)-N-(pyridin-3-ylmethyl)thieno[3,2-d]pyrimidine-4-carboxamide], for which the Ratio at adenosine A2B receptor (setting [6]) is 0.04. For the same compound, the IC50 was 100 to 500 nM on adenosine A2B receptor, 10 to 50 nM on adenosine A2A receptor, 100 to 500 nM on adenosine A1 receptor [3] and 50 to 100 nM on adenosine A3 receptor [4].
`Cc1cc2nc(N[C@@H](C)c3ccccn3)nc(C(=O)NCc3nccs3)c2s1` [Example Z492, (S)-6-Methyl-2-((1-(pyridin-2-yl)ethyl)amino)-N-(thiazol-2-ylmethyl)thieno[3,2-d]pyrimidine-4-carboxamide]: the Ratio at adenosine A2B receptor (setting [6]) was determined as 8.25. In addition, the IC50 was 10 to 50 nM at adenosine A2B receptor, 100 to 500 nM at adenosine A2A receptor, > 500 nM against adenosine A1 receptor [3] and 10 to 50 nM on adenosine A3 receptor [4].
As for `Cc1cc2nc(N[C@@H](C)c3cncc(F)c3)nc(C(=O)NCC[C@@H]3CCNC3)c2s1` [Example Z489, 2-(((S)-1-(5-Fluoropyridin-3-yl)ethyl)amino)-6-methyl-N-(2-((S)-pyrrolidin-3-yl)ethyl)thieno[3,2-d]pyrimidine-4-carboxamide], the Ratio on adenosine A2B receptor (setting [6]) was 365.84. Also, the IC50 was 10 to 50 nM at adenosine A2B receptor, > 500 nM at adenosine A2A receptor, > 500 nM against adenosine A1 receptor [3] and > 500 nM against adenosine A3 receptor [4].
On to `Cc1cc2nc(N[C@@H](C)c3cncc(F)c3)nc(C(=O)N3CC(C(=O)OC(C)(C)C)C3)c2s1` [Example Z573, tert-Butyl (S)-1-(2-((1-(5-fluoropyridin-3-yl)ethyl)amino)-6-methylthieno[3,2-d]pyrimidine-4-carbonyl)azetidine-3-carboxylate], for which the Ratio at adenosine A2B receptor (setting [6]) stood at 3.44. Besides, the IC50 on adenosine A2B receptor is 10 to 50 nM; at adenosine A2A receptor it was 100 to 500 nM; on adenosine A1 receptor [3], > 500 nM; against adenosine A3 receptor [4], > 500 nM.
In the case of `C[C@H](Nc1nc(C(=O)NCCc2cccc(O)c2)c2sccc2n1)c1cncc(F)c1` [Example Z409, (S)-2-((1-(5-Fluoropyridin-3-yl)ethyl)amino)-N-(3-hydroxyphenethyl)thieno[3,2-d]pyrimidine-4-carboxamide], on adenosine A2B receptor (setting [6]), the Ratio is given as 5.96. Further, the IC50 was < 10 nM at adenosine A2B receptor, 10 to 50 nM on adenosine A2A receptor, 50 to 100 nM against adenosine A1 receptor [3] and 50 to 100 nM against adenosine A3 receptor [4].
As to `C[C@H](Nc1nc(C(=O)N2CC(NC(=O)OC(C)(C)C)C2)c2sccc2n1)c1cncc(F)c1` [Example Z583, tert-Butyl (S)-(1-(2-((1-(5-fluoropyridin-3-yl)ethyl)amino)thieno[3,2-d]pyrimidine-4-carbonyl)azetidin-3-yl)carbamate], at adenosine A2B receptor (setting [6]), the Ratio turned out to be 0.37. The IC50 on adenosine A2B receptor is 10 to 50 nM; at adenosine A2A receptor it was 10 to 50 nM; at adenosine A1 receptor [3], > 500 nM; against adenosine A3 receptor [4], > 500 nM.
On to `CNC(=O)N1CCN(C(=O)c2nc(N[C@@H](C)c3cncc(F)c3)nc3ccsc23)C1` [Example Z585, (S)-3-(2-((1-(5-Fluoropyridin-3-yl)ethyl)amino)thieno[3,2-d]pyrimidine-4-carbonyl)-N-methylimidazolidine-1-carboxamide], for which the Ratio at adenosine A2B receptor (setting [6]) amounted to 21.44. Further, the IC50 on adenosine A2B receptor was 10 to 50 nM; at adenosine A2A receptor it was 100 to 500 nM; against adenosine A1 receptor [3] it was > 500 nM; against adenosine A3 receptor [4], > 500 nM.
